Results published in a melting point compilation (Tetko et al.; mined from patent text by program, amines drawn as free bases though some values may be those of a salt).

CN(C)CSc1ccc(-n2cnnn2)cc1 gave a melting point of 56 to 57.5 °C. Compound N#Cc1nc(F)c(F)c(N)c1Cl has a melting point of 190 to 192 °C. In the case of O=C1NCCN1c1ccc(S(=O)(=O)Nc2ccc(F)cc2)cc1, the melting point was 249 to 251 °C. C=CC(=O)NCC(=O)O showed a melting point of 124 to 126 °C. For CC(Sc1nc(SCc2ccccc2)n[nH]1)C(=O)O (stereo not given), the melting point was 123 to 124 °C. For CC(=C\c1ccccc1)/C=C(\C)C(=O)NCCCCCC(=O)NO, the melting point was 120 to 122 °C. In the case of O=S(=O)(Nc1ccc(Cl)cc1-c1nc2ccccc2[nH]1)c1ccc(Cl)cc1, the melting point was 225 to 228 °C. Work on COC(=O)CCc1cc2cc(Cl)ccc2n1S(=O)(=O)c1ccc(NC(C)=O)cc1 yielded a melting point of 154 to 157 °C. With CCCCCCCCCCCCSCCCN=C=O the melting point was 91 to 92 °C. Fc1ccc(/C=C/c2cc(F)cc(F)c2)cc1 showed a melting point of 47 °C. With CNc1nc(NC(=O)NS(=O)(=O)c2ccccc2Cl)nc(OC)n1 the melting point was 224 to 228 °C. With O=C1C=C(O)CC(c2ccc3c(c2)OCO3)C1 (stereo not given) the melting point was 181 °C. In the case of ON=C(Nc1ccc(C(F)(F)F)cc1)C1=NN(c2ccc(Cl)cc2)C(c2ccc(F)cc2)C1 (stereo not given), the melting point was 188 to 191 °C. For COC(=O)[C@H](Cc1cc(Cl)c(OCc2cccc3cc(-c4ccccc4)oc23)c(Cl)c1)NC(=O)C(F)(F)F, the melting point was 141 to 145 °C. For Cn1ccnc1-c1ccc(/C=C/c2ccccc2F)cc1, the melting point was 60 to 61 °C. With O=C1N[C@H](/C=C/c2ccccc2)[C@@H]1N1C(=O)c2ccccc2C1=O (relative stereo) the melting point was 168 to 170 °C. With COC(=O)C=C(C)c1ccc2c(ccn2S(=O)(=O)c2ccccc2)c1 the melting point was 80 to 85 °C. Work on CCOC(=O)C(=C(c1ccc(F)cc1)c1ccc(F)cc1)n1nnnc1C yielded a melting point of 103 to 104 °C. COC(C)=CC(=O)Nc1cccc(C(F)(F)F)c1 gave a melting point of 90 °C. Work on CCOC(=O)c1cnn(-c2cc(Cl)cc(Cl)c2)c1C(N)=O yielded a melting point of 164 to 166 °C. In the case of O=C(Nc1ccccc1N1CCCCC1)c1ccncc1, the melting point was 111 to 113 °C. For CC(C)SSCC12CCC(O)CC1=CCC1C3CCC(=O)C3(C)CCC12 (stereo not given), the melting point was 168 to 169 °C. With COc1ccc(C(O)(Cc2ccncc2)c2ccccc2)cc1OC1CCCC1 (stereo not given) the melting point was 148 to 149 °C. CCN(C1CCN(Cc2ccccc2)C1)S(=O)(=O)c1ccc(Nc2nccc(Nc3ccc(F)cc3)n2)cc1 (stereo not given) gave a melting point of 125 to 127 °C. Cc1nc2c(O[C@@H]3c4ccccc4C[C@H]3O)cccn2c1N=O (relative stereo) gave a melting point of 178 to 179 °C. In the case of COc1cc2c(cc1Nc1ncc(C(F)(F)F)c(Nc3ccc(N4CCOCC4)cc3OC)n1)N(C)C(=O)OCC2, the melting point was 221 to 223 °C. CCOc1cc(COc2nn(-c3ccccc3)cc2C=O)ccc1OCc1nc(-c2ccco2)oc1C showed a melting point of 149 to 150 °C. Compound CCOC(=O)C(=O)Nc1c([N+](=O)[O-])sc2cc(Cl)ccc12 has a melting point of 139 to 141 °C. For CC(=O)N1CCc2cc(C(=O)CCCCCBr)ccc21, the melting point was 110 to 111 °C. For CC1(C)CC(=O)OC1CC(Cl)(Cl)Cl (stereo not given), the melting point was 56 to 58 °C. Compound Cc1ccc2nc(-c3ccc(Cl)cc3)cc(Cl)c2c1 has a melting point of 136 to 138 °C. With CSc1ccc(CCl)cc1C(F)(F)F the melting point was 65 to 66 °C. With COc1ccc(C#CC(C)N(O)C(N)=O)cc1 (stereo not given) the melting point was 144 to 146 °C. O=C(CC(=O)C(F)(F)F)c1ccc(OCc2ccccc2)cc1 gave a melting point of 220 to 224 °C. Compound CCCn1c(=O)c2cc(C(=O)O)cn2c2ccccc21 has a melting point of 260 to 262 °C. CCOC(=O)c1cc(Cl)n2nc(C)nc2n1 gave a melting point of 134 to 136 °C. For Nc1nc(Cl)nc(NC2CC2)n1, the melting point was 188 to 189 °C. In the case of Nc1ccc(Cl)cc1C(=O)c1ccc(Cl)cc1, the melting point was 106 to 107 °C. Work on Fc1ccc2c(CCCN(c3ccncc3)c3csc4cccc(Cl)c34)noc2c1 yielded a melting point of 135 to 136 °C. For O=C1CC2CC(O)(c3ccccc3)CC2C1 (stereo not given), the melting point was 158 to 159 °C. CC(=O)NC[C@H]1CN(c2ccc(-c3noc(C#N)n3)c(F)c2)C(=O)O1 gave a melting point of 200 to 202 °C. Work on COc1cccc(SSc2cccc(OC)c2S(=O)(=O)NC(C)(C)C)c1S(=O)(=O)NC(C)(C)C yielded a melting point of 275 °C. Compound Nc1ccc(Br)n2nc(SCc3ccccc3)nc12 has a melting point of 125 to 126 °C. With COc1cc(Cc2cnc(NCCSCc3cc(CN(C)C)ccn3)[nH]c2=O)ccn1 the melting point was 65 to 74 °C. With CC(c1n[nH]c(=O)[nH]1)N1CCC[C@H](O[C@H](C)c2cc(C(F)(F)F)cc(C(F)(F)F)c2)[C@@H]1c1ccccc1 (stereo not given in full) the melting point was 257 to 258 °C. In the case of Cc1c(-c2ccc([N+](=O)[O-])cc2)sc2c1c(=O)c(OC(C)C)cn2Cc1c(F)cccc1F, the melting point was 188 to 189 °C. For CS(=O)(=O)c1ccc(C2=C(c3ccc(F)cc3)CC3(CCCC3)C2)cc1, the melting point was 142 to 143 °C. For CCNC(=S)n1nc(Oc2c(F)cc(C(F)(F)F)cc2Cl)cc1C, the melting point was 114 to 115 °C. In the case of CCCCCCCCC/C=C1\SC(=O)N(CC(=O)OC)C1=O, the melting point was 30 °C. Cc1ccccc1CC(=O)c1c(O)c2cccnc2n(-c2cccc(OC(F)(F)F)c2)c1=O showed a melting point of 132 to 134 °C. Work on OC(c1ccccn1)c1cc2ccncc2[nH]1 (stereo not given) yielded a melting point of 166 to 169 °C. Compound CCOc1ncnc2c1sc1nc(N(C)C)c3c(c12)CC(C)(C)CC3 has a melting point of 220 to 221 °C. Compound O=C(O)c1cc(S(=O)(=O)Nc2ccc(Cl)cc2Cl)ccc1Cl has a melting point of 174 °C. With COC(=O)c1c[nH]c(Cl)c1 the melting point was 92 °C. For N#Cc1cc(C(F)(F)F)nn1-c1ccc(NC(=O)c2ccncc2Cl)cc1, the melting point was 221 to 222 °C. Compound CCOC(=O)c1cnc2c([N+](=O)[O-])c(Cl)c(F)cc2c1O has a melting point of 226 to 228 °C. For CCOC(=O)c1cn(CC)c2occc2c1=O, the melting point was 158 to 160 °C. For CN(C(=O)Nc1ccc(Cl)cc1)c1nnc(Cl)s1, the melting point was 250 °C. Work on COc1ccc(-c2coc3cc(OCC(O)CN4CCOCC4)ccc3c2=O)cc1OC (stereo not given) yielded a melting point of 135 to 136 °C. With COc1ccc(-n2nc(C(=O)NC(C)(C)C)c3c2C2CCC3C2)cc1 (stereo not given) the melting point was 145 to 147 °C. COC(=O)c1cc2cc(C(=O)CN3CCN(c4ccncc4)CC3)ccc2o1 showed a melting point of 173 to 177 °C. Compound COc1ccc(C(CC(=O)O)N2C(=O)c3cccc([N+](=O)[O-])c3C2=O)cc1 (stereo not given) has a melting point of 178 to 180 °C. Cc1cc(C)c2ccc(N3C(=O)c4nccnc4C3=O)nc2n1 gave a melting point of 250 °C. For CC(C)(O)CN1c2cccnc2C(N)=CC1Cc1ccccc1 (stereo not given), the melting point was 211 to 213 °C. O=C1CNC(=O)[C@@H](CO)N1 showed a melting point of 218 °C. With CCCOc1ccc(F)c2c(=O)c3ccccc3sc12 the melting point was 125 to 127 °C. CN(Cc1ccccc1)C(=O)Cn1c(-c2ccc(Cl)cc2)nc2cccnc21 showed a melting point of 87 to 89 °C. For COCC(C)Oc1cc(Oc2ccc(S(C)(=O)=O)cc2)cc2cc(C3=NCC(CC(C)(C)O)S3)[nH]c12 (stereo not given), the melting point was 112 to 113 °C. Work on CC(C)c1ccc2cc(O)ccc2c1 yielded a melting point of 109 to 110 °C. In the case of Cc1ccc(S(=O)(=O)C(CC#Cc2ccc(Cl)cc2)C(=O)O)cc1 (stereo not given), the melting point was 154 to 157 °C. CCCCc1nc(Cl)c(C(=O)O)n1Cc1ccc2oc(-c3ccccc3-c3nnn[nH]3)cc2c1 gave a melting point of 209 to 210 °C. Work on COc1ccc(Cl)cc1-n1cncc1-c1ccc(C(F)(F)F)cc1 yielded a melting point of 158 to 159 °C. In the case of CCOc1c(C(F)(F)F)cc([N+](=O)[O-])c2nc(C(F)(F)F)[nH]c12, the melting point was 144 to 146 °C. CN1C(=O)CC[C@]2(C)c3ccc(-c4cc(C(F)(F)F)cc(C(F)(F)F)c4)cc3CC[C@@H]12 gave a melting point of 110 to 112 °C. Work on Oc1ccc(-c2nn(-c3ccc(Br)cc3)c3cc(O)ccc23)c(O)c1 yielded a melting point of 246 °C. C#Cc1ccc2c(c1)CC1SC(c3ccccc3)=NC21O (stereo not given) gave a melting point of 118 °C. In the case of O=c1c2ccccc2ncn1CCN1CC=C(c2c[nH]c3ccccc23)CC1, the melting point was 132 °C. With COC(=O)C1=C(C)NC(C)=C(C(=O)OCCN2CCN(C(c3ccc(C)cc3)c3ccc(C)cc3)CC2)C1c1cccc([N+](=O)[O-])c1 (stereo not given) the melting point was 83 to 87 °C. For CN=C(NCCCc1nc2cc(C3=NNC(=O)CC3C)ccc2[nH]1)NC(=O)c1ccccc1 (stereo not given), the melting point was 270 °C. CC#CC(=O)Nc1ccc2ncnc(Nc3cccc(N(C)C)c3)c2c1 showed a melting point of 252 to 254 °C. Work on CC(C)c1cc(C(=O)Nc2ccc(CC(=O)O)cc2)oc1C(C)C yielded a melting point of 154 to 156 °C. Compound COC(=O)Cc1ccsc1-c1ccccc1 has a melting point of 29 to 31 °C. Work on Nc1ccc(F)cc1CS(=O)c1nc2ccccc2[nH]1 (stereo not given) yielded a melting point of 184 to 185 °C. In the case of O=C(c1ccc(F)c(F)c1Nc1ccc(I)cc1F)N1CC(O)CO1 (stereo not given), the melting point was 122 to 124 °C. COc1cc(C(=O)N2CCC(CCN3CCC(=C(c4ccccc4)c4ccccc4)CC3)(c3ccc(Cl)c(Cl)c3)C2)cc(OC)c1OC (stereo not given) gave a melting point of 90 to 94 °C. With C[C@@H]([C@@H](O)c1ccc(OCc2ccccc2)cc1)N1C2CCC1CC(=Cc1ccccc1)C2 (relative stereo) the melting point was 145 to 148 °C. C[C@]12CC[C@H](O)CC1=CCC1C2CC[C@@]2(C)C1CC[C@@H]2c1c[nH]nn1 (stereo not given in full) gave a melting point of 275 to 277 °C. Work on CCOC(=O)C(=CNCC1CCCO1)C(=O)c1ccc(Br)cc1Cl (stereo not given) yielded a melting point of 136 °C. Work on CCS(=O)(=O)Nc1nc(CN2CCC(OC(c3ccccc3)c3ccccc3)CC2)cs1 yielded a melting point of 190 to 191 °C. For CC(C)c1cccc(C(C)C)c1NC(=O)C1c2ccccc2COc2cc(Br)ccc21 (stereo not given), the melting point was 170 to 172 °C. Compound O=C(CSc1ccc(Cl)cc1)c1ccccc1 has a melting point of 65 to 66 °C. COc1ccc(S(=O)(=O)Nc2ccccc2Nc2ccc(Cl)cc2)cc1 gave a melting point of 127 to 128 °C. Compound c1ccc(COc2nn3c(-c4cc(-c5cccs5)on4)nnc3c3ccccc23)nc1 has a melting point of 213 to 215 °C. For CC(=O)Nc1cc(SCC(C)C)ccc1[N+](=O)[O-], the melting point was 53 to 55 °C. With N#Cc1ccc(-c2ccc(-c3ccc(Br)o3)o2)nc1 the melting point was 143 to 145 °C. In the case of O=[N+]([O-])c1cccc(-c2csc(NS(=O)(=O)Cc3ccccc3)n2)c1, the melting point was 219 to 221 °C. In the case of Cc1cc(F)ccc1-c1cc(N2CCSCC2)ncc1C(=O)NC(C)(C)C, the melting point was 164 to 169 °C. For COc1ccc(Cl)c(Oc2c(CO)nc(N3CCOCC3)nc2NS(=O)(=O)c2ccc(C(C)C)cn2)c1, the melting point was 105 °C. Compound N#Cc1c(N)nc2ccc(N3CCOCC3)cc2c1NCc1ccccc1 has a melting point of 202 °C. With COc1cc(OC)cc(N2CCN(C(=O)Nc3nc(C)c(C)nc3OC)CC2)c1 the melting point was 136 to 137 °C.
